Test system: hepatocytes
Experiment: Seq-Well scRNA-Seq of hepatocytes after APAP overdose (signature scores, DEG vs untreated)
Assay type: in vivo, mouse
Details: APAP vs UT, composite DEG

## CC(=O)Nc1ccc(O)cc1 [APAP, acetaminophen]
  Apoa5 logFC: 0.3232
  Apob logFC: 0.5802
  Apoc3 logFC: −0.7688
  Apoc4 logFC: −1.002
  Apom logFC: −0.3024
  Aqp9 logFC: −0.3109
  Arg1 logFC: 0.3179
  Arhgap5 logFC: 0.2952
  Arhgef12 logFC: 0.5908
  Arl5a logFC: 0.2648
  Arl6ip1 logFC: −0.3649
  Arpc1b logFC: 0.2597
  Arrdc3 logFC: 0.5269
  Asgr2 logFC: 0.3064
  Asl logFC: 0.5586
  Ass1 logFC: −0.3144
  Atf5 logFC: 0.329
  Atf6 logFC: 0.3778
  Atp1a1 logFC: 0.4191
  Atp1b1 logFC: 0.3702
  Atp2a2 logFC: 0.495
  Atp2b1 logFC: 0.3321
  Atp5b logFC: 0.2917
  Atp5c1 logFC: −0.3476
  Atp5g3 logFC: −0.3002
  Atp5k logFC: −0.4773
  Atp5o logFC: −0.3316
  Atp6v1f logFC: −0.2529
  Atp11c logFC: 0.2605
  Atp13a3 logFC: 0.3945
  Atp5h logFC: −0.6398
  Atp5d logFC: 0.2501
  Atxn7l3b logFC: 0.3062
  Azin1 logFC: 0.2701
  B2m logFC: −0.418
  B4galt5 logFC: 0.4763
  BC025446 logFC: 0.2942
  BC089597 logFC: 0.2622
  Baat logFC: −0.3086
  Bach1 logFC: 0.8323
  Bbox1 logFC: −0.4082
  Bche logFC: 0.3134
  Bckdha logFC: −0.35
  Bcl2l1 logFC: 0.7751
  Bet1 logFC: −0.2966
  Bfar logFC: 0.2903
  Bhmt2 logFC: −0.3114
  Bhmt logFC: −0.5202
  Birc6 logFC: 0.3444
  Bnip3 logFC: 0.4032
  Bola3 logFC: −0.3689
  Bphl logFC: −0.4075
  Bptf logFC: 0.3245
  Brap logFC: 0.3492
  Brd2 logFC: 0.5715
  Bsg logFC: −0.3152
  Bst2 logFC: −0.3156
  Btaf1 logFC: 0.2755
  Bzw1 logFC: 0.2948
  C1qb logFC: 0.6817
  C3 logFC: 0.4495
  C4b logFC: 0.2833
  C8b logFC: −0.3602
  C8g logFC: −0.6545
  C9 logFC: −0.4271
  C130074G19Rik logFC: −0.3563
  C230081A13Rik logFC: 0.427
  Cald1 logFC: 0.3737
  Calr logFC: 0.5551
  Camk2n1 logFC: 0.2501
  Caprin1 logFC: 0.2628
  Car3 logFC: −1.036
  Car5a logFC: −0.3088
  Cars logFC: 0.3158
  Cast logFC: 0.4009
  Cbr1 logFC: 0.2847
  Ccbl1 logFC: −0.3649
  Ccl6 logFC: 0.7891
  Ccs logFC: −0.4267
  Cd1d1 logFC: 0.2912
  Cd5l logFC: 0.6935
  Cd14 logFC: 0.3621
  Cd163 logFC: 0.4408
  Cdkn1a logFC: 1.215
  Cebpa logFC: −0.3916
  Cela1 logFC: −0.2723
  Cep85l logFC: 0.2779
  Cers6 logFC: 0.5328
  Ces1b logFC: 0.373
  Ces1f logFC: −0.3126
  Ces3a logFC: −0.5253
  Ces1d logFC: −0.4289
  Cfhr1 logFC: −0.3253
  Chac2 logFC: −0.2865
  Chd1 logFC: 0.3788
  Chka logFC: 1.375
  Chpt1 logFC: 0.3566
  Cideb logFC: −0.3684
  Cidec logFC: 0.2994
  Cisd1 logFC: −0.3727
  Cldn2 logFC: −0.2511
  Cldn3 logFC: −0.3145
  Clec4f logFC: 1.108
  Clec4d logFC: 0.2636
  Cnpy2 logFC: −0.3729
  Coa6 logFC: −0.4114
  Commd6 logFC: −0.3645
  Comt logFC: −0.3684
  Copb2 logFC: 0.2839
  Copz1 logFC: 0.2577
  Coq9 logFC: −0.3479
  Coro1c logFC: 0.3067
  Cox4i1 logFC: −0.516
  Cox5a logFC: 0.4024
  Cox6a1 logFC: −0.4872
  Cox6b1 logFC: −0.362
  Cox6c logFC: −0.8443
  Cox8a logFC: 0.4417
  Cpne3 logFC: 0.258
  Cpt1a logFC: 0.3729
  Crat logFC: 0.2556
  Creb3l2 logFC: 0.4272
  Creb3l3 logFC: 0.2757
  Creg1 logFC: 0.2768
  Creld2 logFC: 0.6087
  Csad logFC: −0.5598
  Ctage5 logFC: 0.3287
  Cth logFC: −0.5109
  Ctnnb1 logFC: 0.2957
  Ctsa logFC: 0.252
  Ctsb logFC: 0.5213
  Ctsh logFC: 0.3245
  Ctss logFC: 0.7642
  Cvp2e1 logFC: −2.319
  Cxcl1 logFC: 0.4498
  Cxcl12 logFC: −0.3058
  Cxcr2 logFC: 0.4023
  Cyp4f14 logFC: −0.2959
  Cyp4f15 logFC: −0.2998
  Cyp27a1 logFC: −0.3735
  D10Jhu81e logFC: −0.3957
  D10Wsu102e logFC: 0.5878
  D17Wsu92e logFC: 0.372
  Dbi logFC: −0.7164
  Ddah1 logFC: −0.312
  Ddb1 logFC: 0.2778
  Ddc logFC: −0.3608
  Ddx6 logFC: 0.4443
  Ddx27 logFC: 0.2522
  Decr1 logFC: 0.4664
  Decr2 logFC: 0.4189
  Dennd5b logFC: 0.2935
  Deptor logFC: 0.2606
  Derl2 logFC: −0.3317
  Dgat2 logFC: −0.3433
  Dhcr24 logFC: 0.4238
  Dhdh logFC: −0.3348
  Dhrs4 logFC: −0.3321
  Dhx9 logFC: 0.3504
  Dmgdh logFC: 0.2658
  Dnajb9 logFC: 0.2586
  Dnajb11 logFC: 0.3154
  Dnajc3 logFC: 0.4564
  Dnajc19 logFC: −0.316
  Dusp5 logFC: 0.2964
  Dync1h1 logFC: 0.3796
  Dync1li1 logFC: 0.2624
  Ebp logFC: −0.3553
  Ech1 logFC: −0.4291
  Echs1 logFC: −0.3316
  Eci1 logFC: −0.2764
  Eci2 logFC: 0.311
  Edem1 logFC: 0.2869
  Edf1 logFC: −0.3817
  Eef1a1 logFC: 0.4393
  Efhd2 logFC: 0.5838
  Egfr logFC: 0.505
  Egr1 logFC: 0.5846
  Ehhadh logFC: −0.2505
  Ei24 logFC: 0.2573
  Eif4b logFC: 0.3682
  Eif4g2 logFC: 0.5597
  Eif5 logFC: 0.5763
  Ell2 logFC: 0.4172
  Elovl2 logFC: 0.4522
  Elovl3 logFC: −0.676
  Ephx2 logFC: −0.3693
  Eprs logFC: 0.3701
  Erbb2ip logFC: 0.3332
  Erp44 logFC: 0.2795
  Esd logFC: −0.2808
  Ethe1 logFC: −0.3334
  Etnppl logFC: 0.4967
  Ets2 logFC: 0.6956
  F2 logFC: 0.3213
  F9 logFC: 0.2568
  F10 logFC: 0.2791
  F12 logFC: 0.2567
  Fah logFC: 0.3025
  Fam25c logFC: −0.2977
  Fam107b logFC: 0.4633
  Fam120a logFC: 0.28

From US20230053540A1, “TREATMENT OF LIVER INJURY” (Massachusetts Institute of Technology, priority 2019, published 2023)
